This passage reports IC50 results from patent US11130756B2, “[1,2,4]Triazolo[4,3-A]pyridinyl substituted indole compounds” (BRISTOL-MYERS SQUIBB COMPANY, priority 2017, dated 2021).

For orientation: IC50 means the point on the concentration scale where inhibition reaches its midpoint. Higher therefore signals lower potency.

Type in all cases: cell-based
One test addresses T1, human TLR7 (Homo sapiens, UniProt Q9NYK1).
T1 construct: host or cells: HEK-Blue cells
T1 sequence (Q9NYK1 27-1049): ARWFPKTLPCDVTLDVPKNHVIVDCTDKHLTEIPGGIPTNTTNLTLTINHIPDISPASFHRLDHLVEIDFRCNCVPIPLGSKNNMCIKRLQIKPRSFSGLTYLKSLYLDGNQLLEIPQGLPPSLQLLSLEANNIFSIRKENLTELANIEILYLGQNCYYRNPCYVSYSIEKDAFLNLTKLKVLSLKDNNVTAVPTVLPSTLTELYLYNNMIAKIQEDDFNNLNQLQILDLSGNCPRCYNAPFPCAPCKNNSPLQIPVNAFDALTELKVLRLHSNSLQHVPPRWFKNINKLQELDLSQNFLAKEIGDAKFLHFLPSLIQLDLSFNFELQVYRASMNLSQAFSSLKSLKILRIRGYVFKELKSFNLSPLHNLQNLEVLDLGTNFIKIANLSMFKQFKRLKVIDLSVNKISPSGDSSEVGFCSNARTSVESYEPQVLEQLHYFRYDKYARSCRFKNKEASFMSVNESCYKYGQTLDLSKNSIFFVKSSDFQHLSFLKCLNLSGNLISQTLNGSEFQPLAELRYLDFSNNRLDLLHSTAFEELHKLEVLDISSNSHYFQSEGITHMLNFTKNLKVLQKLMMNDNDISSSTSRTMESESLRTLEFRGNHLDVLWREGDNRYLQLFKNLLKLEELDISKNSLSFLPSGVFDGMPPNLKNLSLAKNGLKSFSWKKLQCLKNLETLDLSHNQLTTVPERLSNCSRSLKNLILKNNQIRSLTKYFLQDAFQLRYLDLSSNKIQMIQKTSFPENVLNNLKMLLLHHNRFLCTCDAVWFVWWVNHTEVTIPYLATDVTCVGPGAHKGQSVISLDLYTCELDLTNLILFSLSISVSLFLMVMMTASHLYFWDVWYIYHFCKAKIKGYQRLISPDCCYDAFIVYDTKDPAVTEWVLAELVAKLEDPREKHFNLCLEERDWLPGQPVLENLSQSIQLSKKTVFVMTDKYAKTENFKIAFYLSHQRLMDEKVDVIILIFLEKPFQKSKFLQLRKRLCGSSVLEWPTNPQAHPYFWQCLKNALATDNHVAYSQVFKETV
The test is described as follows: TLR7 inhibition reporter assay (HEK-Blue, SEAP). Conditions: HEK-Blue cells overexpressing human TLR7, gardiquimod 7.5 μM, 22 hour incubation. An outline of the steps:
(§1)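 HEK-Blue cells overexpressing human TLR7, TLR8 or TLR9 carry a SEAP reporter driven by NF-κB/AP-1 sites. Compounds (0.05 nM–50 μM) were preincubated 30 min at room temperature, then cells were stimulated with gardiquimod 7.5 μM (TLR7), R848 15.9 μM (TLR8) or ODN2006 5 nM (TLR9) for 22 h at 37 °C.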
A general note: A reporter such as luciferase makes a cellular process visible.

Another test has as its target T2, human TLR9 (Homo sapiens, UniProt Q9NR96).
T2 construct: host or cells: HEK-Blue cells
T2 sequence (Q9NR96 26-1032): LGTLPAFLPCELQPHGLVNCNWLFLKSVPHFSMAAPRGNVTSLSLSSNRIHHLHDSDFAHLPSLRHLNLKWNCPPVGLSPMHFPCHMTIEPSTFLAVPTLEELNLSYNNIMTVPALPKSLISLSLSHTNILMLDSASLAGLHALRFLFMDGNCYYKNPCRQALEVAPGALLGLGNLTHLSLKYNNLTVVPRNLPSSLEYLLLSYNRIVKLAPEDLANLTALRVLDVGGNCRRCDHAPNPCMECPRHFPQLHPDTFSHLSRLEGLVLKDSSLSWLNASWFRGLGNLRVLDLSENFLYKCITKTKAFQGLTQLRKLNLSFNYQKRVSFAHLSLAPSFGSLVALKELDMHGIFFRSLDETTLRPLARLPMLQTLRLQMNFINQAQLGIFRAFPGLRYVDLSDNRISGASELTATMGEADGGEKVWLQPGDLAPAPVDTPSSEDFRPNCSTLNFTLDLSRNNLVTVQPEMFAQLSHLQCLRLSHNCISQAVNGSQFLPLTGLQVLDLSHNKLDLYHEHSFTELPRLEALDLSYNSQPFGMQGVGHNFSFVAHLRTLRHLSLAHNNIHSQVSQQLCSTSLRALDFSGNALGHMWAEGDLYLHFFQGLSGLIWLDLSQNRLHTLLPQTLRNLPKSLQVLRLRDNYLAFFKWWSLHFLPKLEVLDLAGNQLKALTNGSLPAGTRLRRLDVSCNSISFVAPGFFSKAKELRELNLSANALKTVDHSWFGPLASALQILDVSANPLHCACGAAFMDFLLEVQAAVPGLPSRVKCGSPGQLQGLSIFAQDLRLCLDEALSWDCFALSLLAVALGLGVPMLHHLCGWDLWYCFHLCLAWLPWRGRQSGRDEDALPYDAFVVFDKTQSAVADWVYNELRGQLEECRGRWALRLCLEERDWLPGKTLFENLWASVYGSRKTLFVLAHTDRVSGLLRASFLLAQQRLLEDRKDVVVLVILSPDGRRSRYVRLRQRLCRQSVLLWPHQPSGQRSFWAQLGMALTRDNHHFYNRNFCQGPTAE
The test is described as follows: TLR9 inhibition reporter assay (HEK-Blue, SEAP). The note with it: HEK-Blue cells overexpressing human TLR9, ODN2006 5 nM, 22 hour incubation. An outline of the steps:
as §1

The target in the next test is T3, human TLR8 (Homo sapiens, UniProt Q9NR97).
T3 construct: host or cells: HEK-Blue cells
T3 sequence (Q9NR97 27-1041): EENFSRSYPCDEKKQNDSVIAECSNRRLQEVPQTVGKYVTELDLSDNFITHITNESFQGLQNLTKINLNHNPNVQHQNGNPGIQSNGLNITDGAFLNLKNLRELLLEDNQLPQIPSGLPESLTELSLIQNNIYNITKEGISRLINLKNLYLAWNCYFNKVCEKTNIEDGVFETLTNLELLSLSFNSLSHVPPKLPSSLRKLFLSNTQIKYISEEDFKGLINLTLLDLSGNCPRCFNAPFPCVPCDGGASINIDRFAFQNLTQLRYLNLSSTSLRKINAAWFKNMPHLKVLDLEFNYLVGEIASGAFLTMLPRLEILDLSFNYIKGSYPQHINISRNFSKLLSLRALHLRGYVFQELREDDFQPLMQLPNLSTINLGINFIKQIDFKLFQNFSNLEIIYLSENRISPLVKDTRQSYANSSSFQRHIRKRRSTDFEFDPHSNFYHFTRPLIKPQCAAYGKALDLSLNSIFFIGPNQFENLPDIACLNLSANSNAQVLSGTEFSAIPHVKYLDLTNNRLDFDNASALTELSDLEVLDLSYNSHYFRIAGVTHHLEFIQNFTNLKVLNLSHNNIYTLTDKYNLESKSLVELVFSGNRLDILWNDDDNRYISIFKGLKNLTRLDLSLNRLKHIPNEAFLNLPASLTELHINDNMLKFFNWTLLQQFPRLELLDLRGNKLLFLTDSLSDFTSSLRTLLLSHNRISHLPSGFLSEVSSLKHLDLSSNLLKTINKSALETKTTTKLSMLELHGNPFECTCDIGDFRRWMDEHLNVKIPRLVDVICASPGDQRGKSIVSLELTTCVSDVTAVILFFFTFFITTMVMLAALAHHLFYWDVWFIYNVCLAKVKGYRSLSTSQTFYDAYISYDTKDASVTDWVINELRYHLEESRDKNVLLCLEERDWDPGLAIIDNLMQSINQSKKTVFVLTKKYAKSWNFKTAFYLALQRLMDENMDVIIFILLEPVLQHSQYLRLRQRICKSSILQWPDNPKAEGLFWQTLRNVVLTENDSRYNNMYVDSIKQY
Briefly: TLR8 inhibition reporter assay (HEK-Blue, SEAP). Conditions: HEK-Blue cells overexpressing human TLR8, R848 15.9 μM, 22 hour incubation. The gist of the method:
as §1

`Cc1c(-c2[nH]c3ccc(C4CCN(C5CCOCC5)CC4)cc3c2C(C)C)cn2cnnc2c1Cl` [Example 81, 8-chloro-6-(3-isopropyl-5-(1-(tetrahydro-2H-pyran-4-yl)piperidin-4-yl)-1H-indol-2-yl)-7-methyl-[1,2,4]triazolo[4,3-a]pyridine]: the IC50 on human TLR7 turned out to be 2.5 nM; against human TLR9, 2260 nM; on human TLR8, 10.8 nM.
Regarding `Cc1c(-c2[nH]c3ccc(C4CCN(C5COC5)CC4)cc3c2C(C)C)cn2cnnc2c1Cl` [Example 82, 8-chloro-6-(3-isopropyl-5-(1-(oxetan-3-yl)piperidin-4-yl)-1H-indol-2-yl)-7-methyl-[1,2,4] triazolo[4,3-a]pyridine], the results for the IC50 against human TLR7, against human TLR9 and at human TLR8 were 4.9 nM, ≥ 50000 nM and 153 nM, respectively.
Regarding `Cc1c(-c2[nH]c3ccc(C4CCN(Cc5cn(C)nn5)CC4)cc3c2C(C)C)cn2cnnc2c1C` [Example 83, 6-(3-isopropyl-5-(1-((1-methyl-1H-1,2,3-triazol-4-yl)methyl)piperidin-4-yl)-1H-indol-2-yl)-7,8-dimethyl-[1,2,4]triazolo[4,3-a]pyridine], the figures for the IC50 against human TLR7, at human TLR9 and against human TLR8 were 3.4 nM, 875 nM and 7.2 nM, respectively.
The corresponding values for `Cc1c(-c2[nH]c3ccc(C4CCN(Cc5cn(C)nn5)CC4)cc3c2C(C)C)cn2cnnc2c1Cl` [Example 84, 8-chloro-6-(3-isopropyl-5-(1-((1-methyl-1H-1,2,3-triazol-4-yl)methyl)piperidin-4-yl)-1H-indol-2-yl)-7-methyl-[1,2,4]triazolo[4,3-a]pyridine] are 5.7 nM, 1110 nM and 21.6 nM.
The corresponding values for `Cc1c(-c2[nH]c3ccc(C4CCN(C5CCOC(C)(C)C5)CC4)cc3c2C(C)C)cn2cnnc2c1C` (stereo not drawn) [Example 85, 6-(5-(1-(2,2-dimethyltetrahydro-2H-pyran-4-yl)piperidin-4-yl)-3-isopropyl-1H-indol-2-yl)-7,8-dimethyl-[1,2,4]triazolo[4,3-a]pyridine] are 2.5 nM, 1990 nM and 6.7 nM.
With `COc1cc(-c2[nH]c3ccc(C4CCN(C5COC5)CC4)cc3c2C(C)C)cn2cnnc12` [Example 86, 6-(3-isopropyl-5-(1-(oxetan-3-yl)piperidin-4-yl)-1H-indol-2-yl)-8-methoxy-[1,2,4]triazolo[4,3-a]pyridine], the IC50 on human TLR7 was 1.2 nM; against human TLR9, 6200 nM; on human TLR8, 26.8 nM.
As for `Cc1c(-c2[nH]c3ccc(C4CCN(C5CC(C)OC(C)C5)CC4)cc3c2C(C)C)cn2cnnc2c1C` (stereo not drawn) [Example 87, 6-(5-(1-(2,6-dimethyltetrahydro-2H-pyran-4-yl)piperidin-4-yl)-3-isopropyl-1H-indol-2-yl)-7,8-dimethyl-[1,2,4]triazolo[4,3-a]pyridine], the figures for the IC50 at human TLR7, at human TLR9 and on human TLR8 were 2.4 nM, 1300 nM and 12.8 nM, respectively.
`COc1cc(-c2[nH]c3ccc(C4CCN(C5CCOCC5)CC4)cc3c2C(C)C)cn2cnnc12` [Example 88, 6-(3-isopropyl-5-(1-(tetrahydro-2H-pyran-4-yl)piperidin-4-yl)-1H-indol-2-yl)-8-methoxy-[1,2,4]triazolo[4,3-a]pyridine]: the IC50 against human TLR7 turned out to be 1.9 nM; against human TLR9 it was 344 nM; against human TLR8, 33.4 nM.
As for `COc1ncc(CN2CCC(c3ccc4[nH]c(-c5cn6cnnc6c(C)c5C)c(C(C)C)c4c3)CC2)cn1` [Example 89, 6-(3-isopropyl-5-(1-((2-methoxypyrimidin-5-yl)methyl)piperidin-4-yl)-1H-indol-2-yl)-7,8-dimethyl-[1,2,4]triazolo[4,3-a]pyridine], the IC50 at human TLR7 amounted to 0.1 nM; at human TLR9, 773 nM; on human TLR8, 3.3 nM.
Regarding `COc1cc(-c2[nH]c3ccc(C4CCN(CC5(C)COC5)CC4)cc3c2C(C)C)cn2cnnc12` [Example 90, 6-(3-isopropyl-5-(1-((3-methyloxetan-3-yl)methyl)piperidin-4-yl)-1H-indol-2-yl)-8-methoxy-[1,2,4]triazolo[4,3-a]pyridine], the IC50 at human TLR7 was determined as 17.3 nM; on human TLR9, 1500 nM; on human TLR8, 245 nM.
The corresponding values for `Cc1ncc(CN2CCC(c3ccc4[nH]c(-c5cn6cnnc6c(C)c5C)c(C(C)C)c4c3)CC2)cn1` [Example 91, 6-(3-isopropyl-5-(1-((2-methylpyrimidin-5-yl)methyl)piperidin-4-yl)-1H-indol-2-yl)-7,8-dimethyl-[1,2,4]triazolo[4,3-a]pyridine] are 1.5 nM, 1810 nM and 4.6 nM.
The corresponding values for `Cc1c(-c2[nH]c3ccc(C4CCN(C5CC(C)OC(C)C5)CC4)cc3c2C(C)C)cn2cnnc2c1C` (stereo not drawn) [Example 92, 6-(5-(1-(2,6-dimethyltetrahydro-2H-pyran-4-yl)piperidin-4-yl)-3-isopropyl-1H-indol-2-yl)-7,8-dimethyl-[1,2,4]triazolo[4,3-a] pyridine] are 5.6 nM, 3270 nM and 15.2 nM.
